Assay results published in patent US12534501B2, “Targeting deregulated Wnt signaling in cancer using stabilized alpha-helices of BCL-9” (Dana-Farber Cancer Institute, Inc., priority 2011, dated 2026).
Numbered stars: 1 amine (or outer) side, 2 acyl side, 3 side chain; on linkers, the order of the positions; unused ones are H or OH. Bridge positions count the residues as written; N and C are the ends. Square brackets hold non-standard residues; d marks the D form. Peptide text beside a SMILES is read from it. ξ: configuration not given here. ξαMeNle(6-ylidene) = CC(CCCC=[*:3])(N[*:1])C(=O)[*:2]; Nle = CCCC[C@H](N)C(=O)O

Assays:
[1] = tested on: CRC cell lines expressing BCL9; assay: Cell proliferation of cultured colon cancer cells; format: cell-based
Description: (§1) Cell proliferation assays were performed as described (Sukhdeo, K. et al. Proc Natl Acad Sci USA 104, 7516-21 (2007)). Cell viability was measured using the CellTiter-Glo assay (Promega) according to the manufacturer's instructions. Apoptosis was evaluated by activated caspase-3 and PARP western blotting. See results in FIG. 3A-FIG. 3F, FIG. 13, and FIG. 20.

[2] = tested on: HCT116, HCT116DO20 and HCT116KO58 cells; assay: Cell proliferation of cultured colon cancer cells; format: cell-based; details: HCT116 and derivatives, not dependent on Wnt/β-catenin activity
Description: as §1

LS174T cell line = assay: Cell proliferation of cultured colon cancer cells; format: cell-based; details: does not express BCL9
Description: as §1

[3] = tested on: Wnt target genes in Colo320 cells; assay: qPCR of Wnt/β-catenin target genes; format: cell-based
Description: RNA was extracted with TRIzol Reagent (Invitrogen) according to the manufacturer's protocol. Total RNA (2 μg) was reverse transcribed (SuperScript VILO cDNA synthesis kit, Invitrogen) and qPCR was performed using an Applied Biosynthesis 7500 Real-time PCR system. Analysis of target genes was conducted in quadruplicate using POWER SYBR Green Master Mix (Applied Biosystems) with previously described primer sets. Transcripts levels were normalized to β-actin expression. These experiments were repeated three times. See results in FIG. 2B, FIG. 2C.
To measure the effects of vehicle, SAH-BCL9B, and SAH-BCL9MUT on the expression of Wnt/β-catenin target genes, including VEGF, in Colo320 (FIG. 18) and MM1S (FIG. 19) cell lines, quantitative PCR (qRT-PCR) analysis was performed. RNA was extracted with TRIzol Reagent (Invitrogen) according to the manufacturer's protocol. Total RNA (2 μg) was reverse transcribed (SuperScript VILO cDNA synthesis kit, Invitrogen) and qPCR was performed using an Applied Biosynthesis 7500 Real-time PCR system. PCR primers were designed as below: […]
Analysis of target genes was conducted in quadruplicate using POWER SYBR Green Master Mix (Applied Biosystems) as previously described (M. Mani et al., Cancer Res 69, 7577 (2009)). Transcripts levels were normalized to β-actin expression. These experiments were repeated three times.

[4] = tested on: VEGF secretion by Colo320 cells; assay: VEGF ELISA; format: cell-based; details: 5 μM, 24 h
Description: (§2) VEGF ELISA was performed as previously described (Mani, M. et al. Cancer Res 69, 7577-86 (2009)). Briefly, cells (1×10^6) were treated with vehicle and SAH-BCL9 peptides (5 μM) for 24 h. VEGF levels in the supernatant were then measured according to the manufacturer's ELISA protocol (DuoSet, R&D Systems).

[5] = tested on: VEGF secretion by MM1S cells; assay: VEGF ELISA; format: cell-based; details: 5 μM, 24 h
Description: as §2

Colo320 cells [6] = assay: Cell proliferation, [3H]thymidine uptake; format: cell-based; details: 5 μM, 24 h
Description: as §1

MM1S cells [7] = assay: Cell proliferation, [3H]thymidine uptake; format: cell-based; details: 5 μM
Description: as §1

MM1S cells [8] = assay: Combination with doxorubicin, 3H-thymidine incorporation; format: cell-based; details: increasing concentrations of Dox
Description: To test whether the anti-proliferative effect of SAH-BCL9B could synergize with other agents commonly used to treat MM or CRC, combination treatment studies were conducted. Indeed, the cytotoxic effects of 5-fluorouracil on CRC cells and of doxorubicin on MM cells were enhanced by SAH-BCL9B, but not by vehicle or the mutant peptide. See results in FIG. 21.

[9] = tested on: multiple myeloma primary tumors (MMPT); assay: Cell proliferation, [3H]thymidine uptake; format: cell-based, human; details: primary MM cells; 5 μM
From the text: (§3) Bone marrow specimens were obtained from patients with MM in accordance with Dana-Farber Cancer Institute Review Board approval and informed consent performed in compliance with the Declaration of Helsinki. Primary CD138+ plasma cells were purified using magnetic beads as described (Sukhdeo, K. et al. Proc Natl Acad Sci USA 104, 7516-21 (2007)). CRC primary tumor samples were obtained from the Brigham and Women's Hospital in accordance with the policies of their Institutional Review Board. To generate sufficient CRC primary tumor cells for experimentation, the primary tumors were first expanded subcutaneously in NOD/SCID mice (Jackson Laboratory). After the tumors reached 2 cm in diameter, mice were sacrificed according to institutional guidelines and subcutaneous tumor xenografts were minced with a scalpel and digested by incubation with collagenase IV (Worthington Biomedical Corporation) and 0.01% DNase I (Sigma-Aldrich) at 37° C. for 30 min, followed by additional mechanical disaggregation using a Stomacher device (Seward Laboratory Systems Inc.). […]
as §1, with “See results in FIG. 3A-FIG. 3F, FIG. 13, and FIG. 20.” left out

[10] = tested on: colorectal primary tumors (CCPT); assay: Cell proliferation, [3H]thymidine uptake; format: cell-based, human; details: primary CRC cells; 5 μM, 24 h
From the text: as §3
as §1, with “See results in FIG. 3A-FIG. 3F, FIG. 13, and FIG. 20.” left out

Colo320 cells [11] = assay: Cellular uptake of FITC-labelled peptides; format: cell-based; details: FITC derivatives
Description: For fluorescence microscopy evaluation, cells were prepared using a cytocentrifuge (Thermo Shandon) and fixed as previously described (Sukhdeo, K. et al. Proc Natl Acad Sci USA 104, 7516-21 (2007); Mani, M. et al. Cancer Res 69, 7577-86 (2009)). Anti-β-catenin and rhodamine-conjugated secondary antibodies (5 μg/ml; Southern Biotechnology) were employed. Images were obtained using a BioRad Radiance 2000 laser scanning confocal microscope. Cell permeability of SAH-BCL9B and SAH-BCL9B(R359E) were determined by fluorescence microscopy of cells treated with FITC-derivatives of the above described stapled peptides and also by blotting/fluorescence scan, performed as previously described (Pitter, K. et al Methods Enzymol, 446, (2008), 387-408; Walensky, L. D. et al. Science 305, 1466-70 (2004). See results in FIG. 1E, FIG. 7.

Molecule | proliferation [1] | proliferation [2] | proliferation (LS174T cell line) | mRNA levels of VEGF, c-Myc, and Axin2 ([3]; qPCR) | Actin expression (non-Wnt pathway target gene) ([3]; qRT-PCR, Colo320) | mRNA levels of VEGF, c-MYC, LGR5, LEF1, and AXIN2 ([3]; qRT-PCR, Colo320 (FIG. 18A), normalized to β-actin) | VEGF secretion [4] | VEGF secretion [5] | proliferation (Colo320 cells [6]) | proliferation (MM1S cells [7]) | enhancement of anti-tumor activity of doxorubicin (MM1S cells [8]) | proliferation [9] | proliferation [10] | cellular uptake (Colo320 cells [11])
CCCC[C@H](NC(=O)[C@H](CCCNC(=N)N)NC(=O)[C@H](CCC(N)=O)NC(=O)[C@@H](NC(=O)C1(C)CCCC=CCCCC(C)(NC(=O)[C@H](CC(C)C)NC(=O)[C@H](CO)NC(=O)[C@H](CCCNC(=N)N)NC(=O)[C@H](CCC(=O)O)NC(=O)[C@H](CCCNC(=N)N)NC(=O)[C@H](Cc2c[nH]cn2)NC(=O)[C@H](CCC(=O)O)NC(=O)[C@H](CC(C)C)NC(=O)[C@H](CCC(N)=O)NC(=O)[C@H](CCC(=O)O)NC(=O)[C@H](CCC(N)=O)NC(=O)[C@H](CO)NC(=O)[C@H](CC(C)C)NC(C)=O)C(=O)N[C@@H]([C@@H](C)O)C(=O)N[C@@H](CC(C)C)C(=O)N[C@@H](CCCNC(=N)N)C(=O)N1)[C@@H](C)CC)C(=O)N[C@@H](CC(C)C)C(=O)N[C@@H](Cc1ccccc1)C(N)=O (some centres unmarked) [SAH-BCL9B] (Ac-LSQEQLEHRERSL[ξαMeNle(6-ylidene)]TLR[ξαMeNle(6-ylidene)]IQR[Nle]LF-NH2; staple 14-18) | significantly reduced the proliferation | no sensitivity | no response | significantly reduced | no change | dose-responsively reduced | decreased VEGF secretion | decreased VEGF secretion | reduced the proliferation | reduced the proliferation | significantly enhanced the anti-tumor activity | reduced the proliferation | reduced the proliferation | 
SAH-BCL9B(R359E): SEQ ID NO: 7: LSQEQLEHEERSLXTLRXIQRBLF; reverse polarity point mutant, negative control of SAH-BCL9B |  |  |  |  |  |  |  |  |  |  |  |  |  | similar
